These results are taken from patent US11331328B2, “Compositions and methods for inhibiting antiapoptotic Bcl-2 proteins as anti-aging agents” (priority 2014, dated 2022).

In data set [1] the test system is senescent HSCs induced by TBI.
Method: The femora and tibiae were harvested from mice immediately after they were euthanized. BM cells were flushed from the bones into HBSS containing 2% FCS using a 21-gauge needle and syringe. […] The labeled mature lymphoid and myeloid cells were depleted twice by incubation with goat anti-rat IgG paramagnetic beads (Dynal Inc, Lake Success, N.Y., USA) at a bead:cell ratio of approximately 4:1. Cells binding the paramagnetic beads were removed with a magnetic field. The negatively isolated Lin^− cells were washed twice with 2% FCS/HBSS and resuspended in complete medium (RPMI1640 medium supplemented with 10% FCS, 2 mM L-glutamine, 10 μM HEPES buffer, and 100 U/ml penicillin and streptomycin) at 1×10^6/ml. HSCs (CD150^+CD48^− LSK^+ cells) were sorted by a BD FACSAria II cell sorter (BD Biosciences, San Jose, Calif.) after Lin^− cells were preincubated with anti-CD16/32 antibody to block the Fcγ receptors and then stained with anti-Sca1-PE, c-Kit-APC-Cy7, CD150-APC and CD48-Pacific blue antibodies. Dead cells were excluded by gating out the cells that stained positive with PI.
Feeder cell stromal layers were prepared by seeding 10^3/well FBMD-1 stromal cells in each well of flat-bottom 96-well plates (Falcon, Lincoln Park, N.J.). One week later, BM-MNCs resuspended in CAFC medium (Iscove's MDM supplemented with 20% horse serum, 10^−5 M hydrocortisone, 10^−5 M 2-mercaptoethanol, 100 U/ml penicillin, and 100 μg/ml streptomycin) after various treatments described above were overlaid on these stromal layers in 6 dilutions at 3-fold intervals. Twenty wells were plated for each dilution to allow limiting dilution analysis of the precursor cells forming hematopoietic cell clones under the stromal layer. Cultures were fed weekly by changing one-half of the media. The frequencies of CAFC were determined on days 14 and 35. Wells were scored positive if at least one phase-dark hematopoietic clone (containing 5 or more cells) was seen. The frequency of CAFC was then calculated by using Poisson statistics as described previously^9, 10. […]
For data set [2], the system named is IL-1α, TNFα, CCL-5, CXCL-10 mRNA. Nature of the data set: SASP mRNA levels in lungs of TBI p16-3MR mice (qRT-PCR). Particulars: 6 Gy TBI; 2 treatment cycles. In kind it is in vivo, mouse. On the procedure:
To measure p21 and GAPDH mRNA levels in WI-38 cells and IL-1α, TNFα, CCL-5, and CXCL-10 mRNA levels in mouse tissues, SYBR assay kit was used (Applied biosystems in life technologies). Briefly, 1 μl cDNA was mixed with 7.5 μl SYBR Green PCR Master Mix and 0.2 μl of primers (Table 5). Samples were then added with 6.30 μl of H2O to give a total 15 μl of mixture. qPCR conditions were as follows: 95° C. for 10 min, 40×(95° C. for 15 s and 60° C. for 1 min), 95° C. for […], 95° C. for 15 min. All reactions were run in triplicate on an ABI StepOnePlus Real-Time PCR System.
Background: In qPCR the cycle at which signal appears reflects the starting amount.

The subject of data set [3] is IR-induced senescent WI-38 cells (SC). The data set can be described thus: Cell viability (PI flow cytometry), LD50 in IR-induced senescent WI-38 cells. It is filed as cell-based, human. On the procedure:
Mouse embryonic fibroblasts (MEF) were isolated from mouse embryos as described^1. All cells were cultured in a complete medium (CM) (Dulbecco's Modified Eagle Medium supplemented with 10% fetal bovine serum [FBS], 100 U/ml penicillin, and 100 μg/ml streptomycin [all from Atlanta Biologicals, Norcross, Ga., and USA]) in a humidified incubator at 37° C. and 5% CO2. Low passages of WI-38 cells (<25), IMR-90 (<25), REC cells (<25) and MEF (<3) were used as non-senescent controls or for induction of senescence to avoid replicative senescence. […] To induce senescence by expression of oncogenic Ras (Ras^V12), WI-38 cells were infected with the retroviruses pBabe-H-Ras or pBabe-puro (control) (Addgene, Cambridge, Mass., UAS)^2, 3. […] Senescent cells were maintained in culture for a few days, changing the culture medium every 3 days until use. For in vitro cell culture experiments, we usually repeated the experiments for at least three times to ensure the reproducibility of the data. In addition, the repeats of the experiments for three times will allow us to obtain 3 independent observations for statistical analysis.
Flow cytometry: Non-senescent and senescent cells were seeded into wells of 24- or 48-well at about 70% of confluence. […] Both quiescent non-senescent cells and permanently growth arrested senescent cells were treated with vehicle (0.1% DMSO or PBS) or increasing concentrations of the compounds listed in Table 1 for various durations. […] After incubated with propidium iodide (PI 100 ng/ml) in PBS at room temperature for 1 min, cells were centrifuged at 1200 rpm for 6 min and then resuspended in PBS with 2% of FBS for analysis by a BD LSR II flow cytometer (BD Biosciences, San Jose, Calif., USA). Viable cells (PI^− cells) were numerated by flow cytometry at a constant flow rate and calculated as a percentage of control cells treated with vehicle using the formula: percentage of control=(Ndrug/NC)×100, where Ndrug and NC represent the absolute number of PI^− viable cells of drug-treated and vehicle-treated cells, respectively.
MTT (3-[4,5-dimethylthiazol-2-yl]-2,5 diphenyl tetrazolium bromide) assay: Cells were harvested, washed and resuspended in CM and added to wells of 24- or 48-well plates as described above. […] After 4 h at 37° C., the formazan was solubilized by lysing the cells with 300 μl of DMSO. Absorbance of formazan was measured at 595 nm using a Microplate Reader (BioTek, Winooski, Vt., USA). Cell viability was calculated in the method as previously described^4.
Trypan blue exclusion assay: Cells were harvested, washed and resuspended in CM and added to wells of a 6-well plate as described above. […] Living cells stained negative for trypan blue and were counted under light microscopy.
Briefly, Probit (set as y) was determined by looking up their correspondence to the % responded in Finney's table. The log of the compound concentrations was used as x. By fitting a line of regression, we produce the formula y=ax+b.

On to `CC1(C)CCC(c2ccc(Cl)cc2)=C(CN2CCN(c3ccc(C(=O)NS(=O)(=O)c4ccc(N[C@H](CCN5CCOCC5)CSc5ccccc5)c(S(=O)(=O)C(F)(F)F)c4)cc3)CC2)C1` [ABT263, navitoclax], for which, in data set [1] (TBI mice, Ki67, γH2AX, BMT), the “HSC myeloid skewing, quiescence and persistent DNA damage” value is “attenuated IR-induced HSC myeloid skewing and disruption of HSC quiescence, and reduced HSCs with persistent DNA damage”. Further, in data set [1] (after ABT263 treatment of CTL or TBI mice), the “BM HSC and HPC numbers” value was “did not quantitatively reduce BM HSCs or hematopoietic progenitor cells (HPCs)”. Also, the “clonogenicity (CAFC) and long-term engraftment ability of HSCs” value in data set [1] (day-35 CAFC, competitive and serial BMT) was “significantly improved the clonogenicity and long-term engraftment ability of HSCs”. Besides, the SASP in lungs result in data set [2] is reported as “suppressed the SASP induced by TBI”. For the same molecule, the IC50 in data set [3] (Homo sapiens, WI-38 fibroblasts, IR-induced senescent, LD50 by Probit Analysis, read-out: LD50 (μM) for senescent cells (SC)) came out at 0.61 µM. The “LD50” value in data set [3] (Table 2, IR-SC WI38 cells) turned out to be 0.61 µM. The “viable cells by MTT assay and trypan blue exclusion test” value in data set [3] (senescent WI-38, increasing concentrations, 72 h) is “can dose-dependently kill senescent WI-38 fibroblasts”. Moreover, the SCs killed in data set [3] (~24 h, 1.25 μM ABT263, IR-SC WI-38) is 70-80%.
